Experimental data as given in PubChem BioAssay (NCI).
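Cells were grown in 96-well plates and exposed to each compound for 48 hours at five concentrations; endpoints were interpolated linearly between bracketing concentrations, or set to the highest concentration if not reached. GI50 marks 50% less growth. At the TGI there is no net growth.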

Experiments:
Assay in all cases: inhibition of tumour cell growth, NCI panel, 48 h
[1] = tested on: 786-0 renal
[2] = tested on: A498 renal
[3] = tested on: A549 NSCLC
[4] = tested on: ACHN renal
[5] = tested on: BT-549 breast
[6] = tested on: CAKI-1 renal
[7] = tested on: CCRF-CEM leukemia
[8] = tested on: COLO 205 colon
[9] = tested on: DU-145 prostate
[10] = tested on: EKVX NSCLC
[11] = tested on: HCC-2998 colon
[12] = tested on: HCT-116 colon
[13] = tested on: HCT-15 colon
[14] = tested on: HL-60(TB) leukemia
[15] = tested on: HOP-62 NSCLC
[16] = tested on: HOP-92 NSCLC
[17] = tested on: HS 578T breast
[18] = tested on: HT29 colon
[19] = tested on: IGROV1 ovarian
[20] = tested on: K-562 leukemia
[21] = tested on: KM12 colon
[22] = tested on: LOX IMVI melanoma
[23] = tested on: M14 melanoma
[24] = tested on: MALME-3M melanoma
[25] = tested on: MCF7 breast
[26] = tested on: MDA-MB-231 breast
[27] = tested on: MDA-MB-435
[28] = tested on: MOLT-4 leukemia
[29] = tested on: NCI-H226 lung
[30] = tested on: NCI-H460 lung
[31] = tested on: NCI-H522 lung
[32] = tested on: NCI/ADR-RES ovarian
[33] = tested on: OVCAR-3 ovarian
[34] = tested on: OVCAR-4 ovarian
[35] = tested on: OVCAR-5 ovarian
[36] = tested on: OVCAR-8 ovarian
[37] = tested on: PC-3 prostate
[38] = tested on: RPMI-8226 leukemia
[39] = tested on: RXF 393 renal
[40] = tested on: SF-268 CNS
[41] = tested on: SF-295 CNS
[42] = tested on: SF-539 CNS
[43] = tested on: SK-MEL-2 melanoma
[44] = tested on: SK-MEL-28 melanoma
[45] = tested on: SK-MEL-5 melanoma
[46] = tested on: SK-OV-3 ovarian
[47] = tested on: SN12C renal
[48] = tested on: SNB-19 CNS
[49] = tested on: SNB-75 CNS
[50] = tested on: SR leukemia
[51] = tested on: SW-620 colon
[52] = tested on: T-47D breast
[53] = tested on: TK-10 renal
[54] = tested on: U251 CNS
[55] = tested on: UACC-257 melanoma
[56] = tested on: UACC-62 melanoma
[57] = tested on: UO-31 renal

## CS(=O)(=O)c1nccc(-c2c(-c3ccc(F)c(OCc4ccc(F)cc4)c3)nc3sccn23)n1
[1]
  GI50: 20.9 µM
  TGI: 53.3 µM
[2]
  GI50: 13 µM
  TGI: 26 µM
[3]
  GI50: 17.7 µM
  TGI: 34.6 µM
[4]
  GI50: 16.6 µM
  TGI: 30.9 µM
[5]
  GI50: 21.2 µM
  TGI: 63.6 µM
[6]
  GI50: 14.8 µM
  TGI: 28 µM
[7]
  GI50: 3.38 µM
  TGI: 13.1 µM
[8]
  GI50: 17.6 µM
  TGI: 34 µM
[9]
  GI50: 3.33 µM
  TGI: 11.1 µM
[10]
  GI50: 15.6 µM
  TGI: 29.1 µM
[11]
  GI50: 14.2 µM
  TGI: 27.9 µM
[12]
  GI50: 14.4 µM
  TGI: 27.5 µM
[13]
  GI50: 13.8 µM
  TGI: 31.4 µM
[14]
  GI50: 3.89 µM
  TGI: 15.3 µM
[15]
  GI50: 16.2 µM
  TGI: 30.9 µM
[16]
  GI50: 5.43 µM
  TGI: 21.5 µM
[17]
  GI50: 21.2 µM
  TGI: 72.2 µM
[18]
  GI50: 21.6 µM
  TGI: 61.6 µM
[19]
  GI50: 15.5 µM
  TGI: 31.8 µM
[20]
  GI50: 21 µM
  TGI: 72.8 µM
[21]
  GI50: 17.6 µM
  TGI: 33.8 µM
[22]
  GI50: 10.2 µM
  TGI: 24.5 µM
[23]
  GI50: 18.5 µM
  TGI: 36.7 µM
[24]
  GI50: 24.5 µM
  TGI: 71 µM
[25]
  GI50: 5.69 µM
  TGI: 22.2 µM
[26]
  GI50: 18.1 µM
  TGI: 39.4 µM
[27]
  GI50: 16.5 µM
  TGI: 31 µM
[28]
  GI50: 18.2 µM
  TGI: 44.4 µM
[29]
  GI50: 28.3 µM
  TGI: > 100 µM
[30]
  GI50: 13.5 µM
  TGI: 27.4 µM
[31]
  GI50: 13.4 µM
  TGI: 30.3 µM
[32]
  GI50: 18 µM
  TGI: 38.7 µM
[33]
  GI50: 13.1 µM
  TGI: 25.8 µM
[34]
  GI50: 17.8 µM
  TGI: 44.6 µM
[35]
  GI50: 67.6 µM
  TGI: > 100 µM
[36]
  GI50: 15 µM
  TGI: 28.3 µM
[37]
  GI50: 17.2 µM
  TGI: 34.9 µM
[38]
  GI50: 20 µM
  TGI: 54.7 µM
[39]
  GI50: 14.3 µM
  TGI: 29.2 µM
[40]
  GI50: 15.9 µM
  TGI: 32.8 µM
[41]
  GI50: 23 µM
  TGI: 52 µM
[42]
  GI50: 17.8 µM
  TGI: 36.7 µM
[43]
  GI50: 15.2 µM
  TGI: 29.6 µM
[44]
  GI50: 16.1 µM
  TGI: 29.8 µM
[45]
  GI50: 17.4 µM
  TGI: 33.1 µM
[46]
  GI50: 93.6 µM
  TGI: > 100 µM
[47]
  GI50: 23.7 µM
  TGI: > 100 µM
[48]
  GI50: 16 µM
  TGI: 30 µM
[49]
  GI50: 16.4 µM
  TGI: > 100 µM
[50]
  GI50: 13.1 µM
  TGI: 60.8 µM
[51]
  GI50: 16.1 µM
  TGI: 31.8 µM
[52]
  GI50: 11.1 µM
  TGI: 26.2 µM
[53]
  GI50: 22.1 µM
  TGI: 66.3 µM
[54]
  GI50: 17.8 µM
  TGI: 37.9 µM
[55]
  GI50: 14.5 µM
  TGI: 28.4 µM
[56]
  GI50: 16.3 µM
  TGI: 34.2 µM
[57]
  GI50: 15.1 µM
  TGI: 36.3 µM
